Assay results as given in ChEMBL document CHEMBL3507680, “University of Dundee, Gates Library screen for HepG2 cell viability”.

Assay: Human HepG2 cell viability assay in 384 well format
Assay type: toxicity, cell-based
Design: dose 125 nL, time 70.5 hour; cytotoxicity at 70.5 h: concentration not given beside the values
Conditions: HepG2 cells, read-out: Inhibition

SMILES | cytotoxicity at 70.5 h [%]
CNC(=O)c1c[nH]nc1C1CCCN1c1ncccn1 (stereo not drawn) | -4.93
CCc1noc(CC)c1CC(=O)N1CCCC(N2CCCCC2)C1 (stereo not drawn) | -8.14
Cc1cnccc1-c1cnn(CCNC(=O)c2ccncc2)c1C1CC1 | 17.4
CCN(Cc1ncc(C(C)(C)C)o1)Cc1ccccc1C | -1.58
CCOCCCNC(=O)c1cccn1Cc1cccnc1 | -4.46
CS(=O)(=O)CC(=O)N1C[C@@H]2COC[C@]2(c2nnc(C3CC3)o2)C1 | 4.38
O=c1[nH]c2nc(N3CCCCCC3)ncc2c(=O)n1-c1cccc(F)c1 | -0.0138
CCc1nccn1C1CCCN(C(=O)Cc2ccc(OC)c(F)c2)C1 (stereo not drawn) | 4.08
CCCc1ncc(C(=O)N2CCOC(c3nc(C)n[nH]3)C2)s1 (stereo not drawn) | -7.33
CC(C)NC(=O)NCCCc1cc(N)n(-c2ccccc2)n1 | 15.9
CCN1CC(C(=O)N2CC(Oc3ccccc3Cl)C2)CC1=O (stereo not drawn) | -1.71
CN(C)CC1(O)CCN(S(=O)(=O)c2ccc(F)cc2)C1 (stereo not drawn) | 30.9
Cc1cc2n(n1)CC(CNC1CCN(C3CC3)CC1)CN2 (stereo not drawn) | -4.14
CC(C)NC(=O)c1sccc1N(C)S(=O)(=O)c1ccc(Cl)cc1 | -8.11
Cc1c(Cl)cccc1S(=O)(=O)N1CCC(S(=O)(=O)c2nncn2C)CC1 | 1.44
CC(C)CN1C[C@H]2C[C@H](C(=O)N3CCCC3)[C@@H](C1)O2 | -2.66
COc1ccc(OC)c(C(C)NC(=O)c2nn(C)c(C)c2Br)c1 (stereo not drawn) | 27.1
CS(=O)(=O)N1Cc2ccccc2CC2(CCN(Cc3ccccn3)C2)C1 (stereo not drawn) | -10.1
Cn1nc(C(=O)N2CCSCC2)cc1NC(=O)c1ccccc1 | -1.31
COc1ccc(S(=O)(=O)N2CCC[C@@H]3CN(C(=O)C4CC4)C[C@@H]32)cc1F | 21.2
CN(C)C(=O)Cc1ccccc1NCc1noc(-c2ccccc2)n1 | 2.37
Brc1ccccc1-c1nnc(CNCCn2cccn2)o1 | 12.2
COc1ccc(CN2CCn3c(CNS(C)(=O)=O)nnc3C2)cc1 | 24.4

SMILES | cytotoxicity at 70.5 h [%]
COCc1ccc(C(=O)N2CCc3c(ncnc3N3CCOCC3)C2)o1 | -4.54
CC(=O)NCCNC(=O)Nc1ccc(Br)cc1C(C)C | 15.2
Cc1ccc(NC(=O)N(C)C)c(C(=O)OCC(=O)NC(C)C(C)C)c1 (stereo not drawn) | 26.9
O=C(Nc1ccccc1OC(F)(F)F)C1CCS(=O)(=O)C1 (stereo not drawn) | -9.01
O=S(=O)(C1CC1)N1CCn2c(Cn3cccn3)cnc2C1 | -1.3
CCc1nc(CN(C)C(=O)c2cc(NC(C)=O)ccc2Cl)no1 | 18.6
c1ccc(OCCNC2CCN(c3ncccn3)CC2)cc1 | 2.01
Cc1noc(C2CCN(Cn3cc(Br)cn3)CC2)n1 | -8.17
O=C1CC2(CCN(Cc3ccncc3)C2)CN1c1cccc(F)c1 (stereo not drawn) | -12.5
O=C(c1cccs1)N1CCN(Cc2cc(=O)c3ccccc3[nH]2)CC1 | -4.26
CCc1ncc(C(=O)N2CCC(Nc3ccc(C)nn3)CC2)s1 | -8.02
CCc1cnc(N)nc1NCCCn1cc(Cl)cn1 | -5.81
CC(=O)N1CCN(c2nc(C(F)(F)F)nc3sc(C)c(C)c23)CC1 | -9.75
O=c1cc(CN(CCO)C2CC2)nc2ccc(Cl)cn12 | 14.2
c1ccc(CN2CCc3c(CNc4nccs4)n[nH]c3C2)nc1 | -16.9
c1cnc(N2CCCC(Cc3nccs3)C2)nc1 (stereo not drawn) | -3.8
CC(=O)c1cccc(NC(=O)c2cnc(N3CCN(C)CC3)nc2C)c1 | 12.8
Cc1noc(C[C@@H]2COC[C@H]3CN(C(=O)C4=CCCC4)C[C@@H]23)n1 | -13.5
Cc1ccc(-n2nnc(C(=O)O)c2C)c(C)c1 | 0.943
Cc1cc2c(cc1Cl)C=CC1(CCN(CC(=O)NC3CCCC3)CC1)O2 | -1.12
NC(=O)CN1CCN(c2ccnc3c(F)ccc(F)c23)CC1 | -1.57
c1cnn(CC2CN(Cc3noc(C4CC4)n3)CCO2)c1 (stereo not drawn) | -0.284
Cc1ccc(NC(=O)CCc2ccco2)cc1N1CCOC1=O | -10.1

SMILES | cytotoxicity at 70.5 h [%]
COc1ccc(-c2ccnc(C3CCNCC3)c2)cc1 | -5.12
Cc1nc(C(=O)N2CCCC2c2noc(C3CC3)n2)c[nH]1 (stereo not drawn) | -0.671
CCCNC(=O)Nc1cc2c(cc1SC)OCCO2 | 0.576
Cc1cnc(C2(C)CCN(Cc3csc(C)n3)CC2)s1 | -4.14
COc1cccc(CC(=O)NCC(Cc2ccc(F)cc2)C(N)=O)c1 (stereo not drawn) | -4.64
Cc1cc(C(=O)Nc2cccn(Cc3ccccc3)c2=O)no1 | 1.5
CCOc1cncc(N2CCN(c3ccccc3O)CC2)n1 | 13.6
Cc1ccsc1CN(C)Cn1nccc1-c1cccnc1 | -2.36
CNC(=O)C(C)(C)N1CCC[C@H]1C(=O)NC(C)(C)C | 14.3
CN1CCCC1c1ccc(C(=O)Nc2c3c(nn2C)CCC3)s1 (stereo not drawn) | -13
CCN(Cc1cccc2c1OCO2)C(=O)Nc1ccncc1 | 5.81
Cc1cccc(OCC2CCCN(C(=O)Cn3ccccc3=O)C2)c1 (stereo not drawn) | 5.85
CCS(=O)(=O)N1CCOC(CCCc2ccccc2)C1 (stereo not drawn) | 5.87
Cc1cn2c(n1)CCC(NC(=O)CCOc1cccc(F)c1)C2 (stereo not drawn) | -4.07
O=C1CC2(CCN(CCO)C2)CN1c1cccc(F)c1 (stereo not drawn) | -10.9
COCc1nnc(NC(=O)CN2C(=O)c3ccccc3NC2C(C)C)s1 (stereo not drawn) | -12.3
COc1ccnc(N2CCCN(c3nc(C4CC4)ns3)CC2)n1 | -9.55
CN(C(=O)C1CCCC1)C(c1cccc(F)c1)c1ccccn1 (stereo not drawn) | 14.2
CCOC(C)c1nccn1Cc1noc(CC)n1 (stereo not drawn) | 16.7
CCc1nnc(NC(=O)Cc2c(C)nc(C)[nH]c2=O)s1 | 13.4
COCC1c2nnn(CC3CC3)c2CCN1C(=O)C1CCOCC1 (stereo not drawn) | -11.4
Cc1cccc(C(C)(C)CNC(=O)CN(C)c2cnccn2)c1 | -2.49
CN(C)S(=O)(=O)N1CCC2(CCCN(Cc3ccc(F)cc3)C2=O)C1 (stereo not drawn) | -2.15

SMILES | cytotoxicity at 70.5 h [%]
CC(C)Nc1nc(N2CCOCC2)nc2c1CN(CC(=O)N(C)C)CC2 | 26.3
CN1C(=O)C2(CCN(c3nccc4occc34)CC2)c2ccccc21 | 9.71
Cc1cc(C)n2c(CNCc3ccc(OC(F)F)cc3)cnc2n1 | -9.15
Cc1c(C2SCC(=O)Nc3c2cnn3C(C)(C)C)cnn1C (stereo not drawn) | -10.1
CC(NCC1(N(C)C)CCOCC1)c1ccc(S(C)(=O)=O)cc1 (stereo not drawn) | -3.6
Cc1cccc2c1cnn2CCC(=O)NCC(=O)N(C)C | -9.91
CC(C)n1ccc2c(NC(=O)c3n[nH]c4c3CCC4)cccc21 | 7.25
CN(Cc1cccnc1)C[C@@H]1OC[C@H]2CN(Cc3ccco3)CC[C@H]21 | -2.49
CCC(=O)N1CCc2[nH]cnc2C12CCN(CC1CCOC1)CC2 (stereo not drawn) | -9.55
CCCS(=O)(=O)N1CCOC2(COCCN(C(C)=O)C2)C1 (stereo not drawn) | -8.79
CC(=O)N[C@@H]1CN(C(=O)CC2CC2)C[C@H]1O | -4.46
CCc1cc(N2CCCC(CC)(C(=O)O)C2)nc(N2CCOCC2)n1 (stereo not drawn) | 13.3
CCc1noc(CN2CCN(C(=O)OC(C)(C)C)C(C)C2)n1 (stereo not drawn) | 2.89
Cc1nc(CNCc2c(C(C)C)nn(C)c2N2CCOCC2)cs1 | -7.63
Cc1nc(C2CCCN2CCCNS(C)(=O)=O)no1 (stereo not drawn) | -0.166
Cc1cc(C)n(CC2(CNC(=O)C(c3ccccc3F)N(C)C)CC2)n1 (stereo not drawn) | -5.49
O=C(Cc1c(F)cccc1Cl)Nc1cc(N2CCOCC2)ncn1 | 9.04
CCc1noc(CN2CCN(C(=O)N(CC)CC)CC2)n1 | -10
COc1ccc(S(=O)(=O)N2C[C@@H]3CN(C)CCO[C@@H]3C2)cc1 | -4.18
c1cnc(N2C[C@H]3CCN(CCN4CCCC4)C[C@H]3C2)cn1 | -5.43
CN(Cc1cc2n(n1)CCN(C(=O)[C@H]1CCCO1)C2)Cc1nccs1 | 46.3
Cc1nc(CN2CCCC2Cn2cncn2)nc2ccccc12 (stereo not drawn) | -12.1
CCc1nc(C)ncc1C(=O)N1CC(=O)N(C)c2ccccc21 | -10.1

SMILES | cytotoxicity at 70.5 h [%]
CCN1C[C@H]2C3(CCN(S(C)(=O)=O)CC3)CC[C@@]2(C(=O)N(C)C)C1 | -9.68
C[S+]([O-])c1ccc(CNc2ccc(F)cc2OC(F)F)cc1 (stereo not drawn) | -0.988
CC(NC(=O)C1(NC(=O)c2ccc3[nH]ncc3c2)CCCC1)C1CC1 (stereo not drawn) | -5.24
CC(=O)N1CCCN(c2nccc(-c3cn(C)nc3C)n2)CC1 | -2.77
Cc1nn(C)c(C)c1OCC(=O)N1CCCc2c(F)ccc(F)c21 | 18.1
O=C(c1ccc2c(c1)OCCCO2)N1CCCCC1C1OCCO1 (stereo not drawn) | -3.71
Cc1nn(C)c(N(C)C)c1CNCc1ccnc(N2CCCCC2)c1 | -2.08
COC(=O)CCCC(=O)N1CCC(CO)(CCc2ccccc2)CC1 | -11.9
CC(C(=O)N1CCN(c2cnccn2)CC1)n1cncn1 (stereo not drawn) | -4.32
Cc1nc(-c2ccco2)ccc1C(=O)N1CCn2c(C)nnc2C1 | -17.1
Cc1cnc(NCc2ccc(S(=O)(=O)N(C)C(C)C)cc2)nc1C | -11.1
O=C(c1cccnc1)N1CCC(Oc2cccc(C(F)(F)F)c2)CC1 | -4.72
CCc1oc(C(=O)OC)cc1Cn1cccc(C(F)(F)F)c1=O | -1.62
CCCOc1ccc(CNc2cncc(-n3cccn3)n2)cc1 | -6.6
O=C(CS(=O)(=O)C1CCCC1)NC(c1ccc(F)cc1)C1CC1 (stereo not drawn) | 1.6
CCCN1CCCn2c(nc(CNC(=O)N3CCCC3)cc2=O)C1 | -9.21
CCS(=O)(=O)c1ccc(N2CCC(NC(=O)CC3CCCC3)CC2)cc1 | -9.91
N#Cc1c(C2CCOC2)cc(-c2ccc(N3CCCCC3)cc2)nc1N (stereo not drawn) | -7.42
Cc1cnn(CC2CN(CC(=O)NCc3ccco3)CCO2)c1 (stereo not drawn) | -15.3
c1cnc(-c2noc(C3CN(Cc4ccc5c(c4)CCO5)C3)n2)cn1 | -9.18
C[C@@H]1CN(CC(C)(C)N2CCOCC2)CC[C@@]1(O)C1CCOCC1 | 7.82
